Assay: Inhibitory activity against beta-glucosidase of sweet almond

- Ki: 2.1 µM
SMILES: C[C@@H]1NC[C@@H](CO)[C@@H](O)[C@@H]1O [5-Hydroxymethyl-2-methyl-piperidine-3,4-diol]
